Data as given in publication PMC6784244 (Toxins, 2019).
Values after ≈ are worked out from the molar mass of the structure shown. Values joined by “and” are separate entries in the source; they are usually repeats but may differ in a detail not shown here. Identical values can stand only once. Like-named read-outs stand apart in the source and are kept apart here.

Legend:
[1] = test system: C. perfringens; type: cell-based, Clostridium perfringens
[2] = test system: human erythrocytes; details: pH 7.4
[3] = test system: Fusarium graminearum (DSMZ 1095); details: DSMZ 1095, pH 7
[4] = lipid monolayer at air-water interface on PBS pH 7.4, peptide 1 µM, initial pressure 10-30 mN/m, extrapolated to delta pressure 0
Method: (§1) Peptide–lipid interaction was evaluated using reconstituted lipid monolayer at the air–water interface as previously described. Pure prokaryotic and eukaryotic lipids used were: POPC (1-palmitoyl-2-oleoyl-glycero-3-phosphocholine), POPE (1-palmitoyl-2-oleoyl-sn-glycero-3-phosphoethanolamine), POPG (1-palmitoyl-2-oleoyl-sn-glycero-3-phospho-(1’-rac-glycerol), and cardiolipin, all from Avanti Polar Lipid (Alabama, USA). LTA (Lipoteichoic acid from B. subtilis) was obtained from Invivogen SAS (Toulouse, France). Pure lipids were reconstituted in chloroform:methanol (2:1, v:v) at 1 mg/mL and stored at −20 °C under nitrogen. The interaction and insertion of the ENN and BEA into lipids were evaluated through the measurement of their critical pressure of insertion as previously described. Briefly, lipids were spread using a 50 µL Hamilton’s syringe at the surface of 800 µL of sterile PBS creating a lipid monolayer at the air–water interface. Lipids were added until the surface pressure reached the desired value. After 5–10 min of incubation allowing evaporation of the solvent and stabilization of the initial surface pressure, 8 µL of ENN or BEA diluted in sterile PBS at 100 µM were injected into the 800 µL sub-phase of PBS under the lipid monolayer (pH 7.4, volume 800 µL) using a 10 µL Hamilton syringe giving a final concentration of peptides of 1 µM, preliminary experiments having shown that this concentration gave optimal insertion. The variation of the surface pressure caused by peptide injection was then continuously monitored using a fully automated microtensiometer (µTROUGH SX, Kibron Inc., Helsinki, Finland) until reaching equilibrium (maximal surface pressure increase being usually obtained after 15–25 min). The critical pressure of insertion of each peptide was determined by changing the initial pressure of lipid monolayer (from 10 and 30 mN/m) and measuring the variation of pressure caused by the insertion of the peptide. The critical pressure of insertion of each peptide in a particular lipid was determined graphically and calculated as the theoretical value of initial pressure of lipid monolayer not permissive to peptide insertion, i.e., causing a variation of pressure equal to 0 mN/m.

[5] = test system: A. niger (ATCC 9142); details: ATCC 9142, pH 7
[6] = test system: Methicillin-resistant S. aureus strain MRSA USA300
[7] = test system: C. perfringens; type: cell-based, Clostridium perfringens; remark: listed apart in the source
[8] = test system: Escherichia coli (ATCC 8739)
[9] = test system: Aspergillus flavus (DSMZ 1959); details: DSMZ 1959, pH 7
[10] = test system: Penicillium verrucosum (DSMZ 12639); details: DSMZ 12639, pH 7
[11] = test system: Acinetobacter baumannii (CIP 110431)
[12] = test system: C. perfringens; type: cell-based, Clostridium perfringens; remark: listed apart in the source
[13] = set-up: species or system B. subtilis; key: -- indicates the absence of interaction; details: lipid monolayer on PBS pH 7.4, peptide 1 µM, extrapolated to delta pressure 0; -- = absence of interaction
Method: as §1

[14] = test system: Nisin-resistant B. subtilis (DSMZ 347)
[15] = test system: Mycobacterium smegmatis (mc2155, ATCC 700084); details: mc2155, 72 h
[16] = test system: Helicobacter pylori (ATCC 43504)
[17] = test system: Clostridium perfringens (ATCC 13124)
[18] = test system: Bacillus subtilis (ATCC 6633)
[19] = test system: Candida albicans (DSMZ 10697); details: DSMZ 10697, 24 h, pH 7
[20] = test system: N87 (human gastric cell line); details: 48 h
[21] = test system: Vancomycin-resistant Enterococcus faecalis (DSMZ 13591)
[22] = test system: F. oxysporum (DSMZ 62316); details: DSMZ 62316, pH 7
[23] = set-up: key: -- indicates the absence of interaction; details: lipid monolayer on PBS pH 7.4, peptide 1 µM, extrapolated to delta pressure 0; -- = absence of interaction
Method: as §1

[24] = test system: A. ochraceus (DSMZ 824); details: DSMZ 824, pH 7
[25] = test system: Staphylococcus aureus (ATCC CRM-6538P)
[26] = test system: Stachybotrys chartarum (DSMZ 2144); details: DSMZ 2144, pH 7
[27] = test system: Pseudomonas aeruginosa (ATCC CRM-9027)
[28] = test system: HEK (human normal epidermal keratinocytes); details: 48 h
[29] = test system: F. verticillioides (DSMZ 62264); details: DSMZ 62264, pH 7
[30] = C. perfringens, 5 x MIC, 4 h, 37 °C, anaerobic, FM4-64FX membrane and DAPI DNA staining, confocal microscope

**Q.** Which “Observed Morphology” value [1, 30] does the source give for `CO/N=C1\CN(c2nc3c(cc2F)c(=O)c(C(=O)O)cn3C2CC2)CC1CN` (stereo not shown) [Gemifloxacin, reference compound] here?
**A.** • Elongated cells (5–6 times compared to control) • Decondensed DNA • Chain formation

**Q.** For `CN(C)[C@@H]1C(O)=C(C(N)=O)C(=O)[C@@]2(O)C(O)=C3C(=O)c4c(O)cccc4[C@@](C)(O)[C@H]3C[C@@H]12` [Tetracycline, reference compound], which “Observed Morphology” value [1, 30] is on record?
**A.** • Some cell elongation (1.5–2 times compared to control) • DNA condensed in 1–4 circles per cells

**Q.** With `CO[C@H]1/C=C/O[C@@]2(C)Oc3c(C)c(O)c4c(O)c(c(/C=N/N5CCN(C)CC5)c(O)c4c3C2=O)NC(=O)/C(C)=C\C=C\[C@H](C)[C@H](O)[C@@H](C)[C@@H](O)[C@@H](C)[C@H](OC(C)=O)[C@@H]1C` [Rifampicin, reference compound] as the molecule, how does the “Observed Morphology” value [1, 30] read?
**A.** • No cell elongation • DNA condensed in one filament crossing the cells

**Q.** Which “Observed Morphology” value [1, 30] does the source give for `CC1(C)S[C@@H]2[C@H](NC(=O)[C@H](N)c3ccc(O)cc3)C(=O)N2[C@H]1C(=O)O` [Amoxicillin, reference compound] here?
**A.** • Elongated cells (5–6 times compared to control) • Normally condensed DNA

**Q.** What does the source list for `CC(C)[C@H]1OC(=O)[C@H](Cc2ccccc2)N(C)C(=O)[C@@H](C(C)C)OC(=O)[C@H](Cc2ccccc2)N(C)C(=O)[C@@H](C(C)C)OC(=O)[C@H](Cc2ccccc2)N(C)C1=O` [BEA, Beauvericin]?
**A.** HC50 (dose causing 50% hemolysis), Erythrocytes [2]: 118.9 ± 15.8 µM; Known/possible target [1]: Protein biosynthesis; Observed Morphology [1]: • No cell elongation • DNA condensed in 1–4 circles per cells; MIC, F. graminearum [3]: 25 µM (≈ 19.6 µg/mL); critical pressure of insertion, POPC [4]: 41.65 mN/m; critical pressure of insertion, POPE [4]: 32.46 mN/m; MIC, A. niger [5]: >100 µM; MIC, S. aureus MRSA [6]: 6.25 to 12.5 µM; percentage of permeabilization at four times the MIC [7]: 1.8 ± 2.8%; MIC, E. coli [8]: >100 µM; MIC, A. flavus [9]: >100 µM; MIC, P. verrucosum [10]: >100 µM; MIC, A. baumannii [11]: >100 µM; membrane depolarization at 100 µM [12]: 59.1 ± 2.0%; membrane depolarization at four times their MIC [12]: 63.8 ± 4.8%; membrane depolarization at their MIC [12]: 38.3 ± 3.3% and 30–40%; critical pressure of insertion, LTA [13]: --; MIC, B. subtilis NR [14]: 6.25 to 12.5 µM; MIC, M. smegmatis [15]: 25 µM (≈ 19.6 µg/mL); MIC, H. pylori [16]: >100 µM; MIC, C. perfringens [17]: 6.25 µM (≈ 4.9 µg/mL); MIC, B. subtilis [18]: 6.25 to 12.5 µM; MIC, C. albicans [19]: 6.25 µM (≈ 4.9 µg/mL); IC50 [20]: 27.5 ± 0.7 µM; MIC, E. faecalis [21]: 12.5 µM (≈ 9.8 µg/mL); MIC, F. oxysporum [22]: >100 µM; critical pressure of insertion, POPG [23]: --; MIC, A. ochraceus [24]: >100 µM; MIC, S. aureus [25]: 12.5 µM (≈ 9.8 µg/mL); MIC, S. chartarum [26]: >100 µM; MIC, P. aeruginosa [27]: >100 µM; IC50 [28]: 5.4 ± 0.9 µM; MIC, F. verticillioides [29]: >100 µM
